Series [1] deals with HER2 expressing SK-OV-3-Luc ovarian xenograft. The series can be described thus: efficacy in SK-OV-3-Luc ovarian xenograft subcutaneous model. It counts as in vivo, mice. The note with it: 20 mg/kg ip BIW, day 52 pi.
Procedure: This study was performed to evaluate the efficacy of ADC constructs against HER2 expressing SK-OV-3-Luc ovarian xenograft subcutaneous model using both bioluminescent imaging and traditional tumor caliper measurement. Sixty-five female athymic nudes, 4 weeks old of age were obtained from Charles River. SK-OV-3-Luc cells were expanded using standard tissue culture technique. On the day of implantation, 2.5×10^6 cells in incomplete media with 30% matrigel were implanted to the right lower flank of each mouse. Animals were stratified into 7 groups of 8 mice for treatment based on the total flux (Perkin Elmer IVIS Lumina XRMS II) at day 10 pi. Animals were weighed twice weekly in conjunction with tumor measurements. Bioluminescent Imaging were performed once a week. Tumor mass were calculated using the following formula: Mass (mg)=Tumor volume (mm^3)=d^2×D/2, where d and D are the shortest and longest diameter in mm, respectively.
A further series deals with cetuximab Fab fragment. The series can be described thus: meditope binding to cetuximab Fab. The note with it: meditope-binding site within the central cavity of the cetuximab Fab fragment; read-out: binding constant. The source says: In some examples, the meditope-binding site is a structural feature of the monoclonal antibody cetuximab. Thus, in some cases, the meditope-binding site contains residues corresponding to those within the meditope binding site of cetuximab.
Sequence of cetuximab Fab fragment (as listed by the source, other chains not shown): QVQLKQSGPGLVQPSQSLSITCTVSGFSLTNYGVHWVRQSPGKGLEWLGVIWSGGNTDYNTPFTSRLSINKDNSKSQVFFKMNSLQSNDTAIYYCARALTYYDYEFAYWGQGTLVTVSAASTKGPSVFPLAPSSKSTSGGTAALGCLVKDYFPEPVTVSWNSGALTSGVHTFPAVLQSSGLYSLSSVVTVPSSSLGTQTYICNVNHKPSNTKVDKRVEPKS

Series [2] is described as follows: modulation of self-crosslinking by free meditope, silver-stained native gel. It counts as physicochemical. The note with it: 1 μM free meditope, 100 nM SnAP-body variants 1, 2, 3.
The next series concerns CLL. As to conditions: Phase I, cited from earlier work.
[3] abbreviates: 46 heavily pretreated CLL patients, single agent.

As usually defined, the TGI is how far tumour growth fell short of that in controls. A higher TGI goes with a stronger effect on the tumour. In turn, `CC(=O)O[C@H]1C(=O)[C@@]2(C)[C@H]([C@H](OC(=O)c3ccccc3)[C@]3(O)C[C@H](OC(=O)[C@H](O)[C@@H](NC(=O)c4ccccc4)c4ccccc4)C(C)=C1C3(C)C)[C@]1(OC(C)=O)CO[C@@H]1C[C@@H]2O` [Paclitaxel] displayed a TGI in series [1] of 2.80%.
Turning to C-QFDLSTRRLK-C [cQFD meditope], the Kd at cetuximab Fab fragment was around 700 nM. Moreover, the “effect of free meditope on antibody self-crosslinking” value in series [2] is “can interfere with the self-crosslinking ability of self-crosslinking antibodies”.
Take “lumiliximab: primatized anti-CD23 mAb that contains cynomolgus macaque variable regions and human constant regions (IgG1-κ)”: in the series on CLL (setting [3]), the “objective Complete Responses (CRs) or Partial Responses (PRs)” value was “no objective Complete Responses (CRs) or Partial Responses (PRs) were observed”, the “patients with decreased peripheral blood lymphocyte counts” value is 91 % of patients and the “patients with reduced enlarged lymph node size” value is 52 % of patients. In addition, in the series with CLL (CLL patients), the “MTD (maximum tolerated dose)” value is recorded as “not reached”, the “adverse events (AEs)” value is reported as “majority of adverse events (AEs) are limited to grade 1/2” and the immunosuppression result is “not immunosuppressive”.

Source of the values: US11459397B2, “Self-crosslinking antibodies” (Meditope Biosciences, Inc., priority 2016, dated 2022).
